The results in this text go back to PMC11013998, “Preparation of Peptoid Antifreeze Agents and Their Structure–Property Relationship” (Polymers, 2024).

For the data set, the system named is Mouse fibroblasts (L929). The data set can be described thus: Cytotoxicity test, Cell Counting Kit-8 (CCK8). Type of data set: cell-based. Particulars: L929 cells, 10 mg/mL in culture medium, 24 h, CCK-8, OD at 450 nm; non-cytotoxic if higher than 75%; tested at least three times. The method, then: Cytotoxicity testing is a crucial strategy used to test the safety of biological materials. This experiment employed a low-speed centrifuge (SC-3610, Anhui Zhongke Zhongjia scientific Instrument Co., Ltd., Hefei, China), a cell incubator (CCL-170B-8, ESCO, Kuala Lumpur, Singapore) and a multifunctional microplate detector (Synergy H1, Bio-Tek, Winooski, VT, USA). In this test, the cytotoxicity of peptoid oligomers was detected using Cell Counting Kit-8 (CCK8, Finn Biological Co., Ltd., Wuhan, China). Mouse fibroblasts (L929) were cultured and subcultured to ensure that they met the experimental requirements. The old culture medium was removed from the cell dish, and 1 mL trypsin was added to digest the cells. A total of 2 mL of the new culture medium was added to the cell culture dish, and the cells were centrifuged to the bottom of the centrifuge tube. The culture medium was removed. An appropriate amount of new culture medium was added, and the centrifuge tube was shaken gently to disperse the cells evenly. […] Finally, the Optical Density (OD) at 450 nm was measured using a BioTek multifunctional microplate detector. The relative survival rate (σ) could be calculated using the following formula:(1) σ=OD1−OD0/OD2−OD0×100% where OD1 was the average OD of the experimental group, OD2 was the average OD of the negative control group, and OD0 was the average OD of the blank control group. […]

For the compound `C[S+](C)[O-]` [DMSO, dimethyl sulfoxide], the relative cell viability amounted to 61.9%.
